Reference: US8242280B2, “Fused ring heterocycle kinase modulators” (SGX Pharmaceuticals, Inc., priority 2007, dated 2012)

Tests used:
Ba/F3 cells, ABL1 WT = Ba/F3 cells, ABL1 WT (Homo sapiens, UniProt P00519); experiment: 96-well XTT cell survival assay, Ba/F3 ABL1 WT; type: cell-based; details: 72 hours, read-out: ABL1 WT XTT [Ba/F3] IC50
Protocol: (§1) MV4-11 and THP cells were maintained in Iscove's Modified Dulbecco's Medium supplemented with 10% fetal bovine serum (FBS) and penicillin/streptomycin, Ba/F3 cells were maintained in RPMI 1640 supplemented with 10% FBS, penicillin/streptomycin and 5 ng/ml recombinant mouse IL-3.
(§2) Compounds were tested in the following assays in duplicate.
(§3) 96-well XTT assay: Cells (e.g. BaF3 315I, M351I, or E255K cells) were grown in growth media containing various concentrations of compounds (duplicates) on a 96-well plate for 72 hours at 37° C. The starting cell number was 5000-8000 cells per well and volume was 120 μl. At the end of the 72-hour incubation, 40 μl of XTT labeling mixture (50:1 solution of sodium 3′-[1-(phenylamino-carbonyl)-3,4-tetrazolium]-bis(4-methoxy-6-nitro)benzene sulfonic acid hydrate and Electron-coupling reagent: PMS (N-methyl dibenzopyrazine methyl sulfate) were added to each well of the plate. After an additional 2-6 hours of incubation at 37° C., the absorbance reading at 405 nm with background correction at 650 nm was measured with a spectrophotometer.

[1] = target: T1, unphosphorylated T315I Abl kinase domain (Mus musculus, UniProt P00520, T315I); experiment: c-Abl T315I 0P bioassay (pyruvate kinase/lactate dehydrogenase coupled enzyme assay); type: biochemical; details: zero phosphorylation state (0P), 10 μM ATP, read-out: AbI T315I 0P IC50
T1 construct: purified and unphosphorylated T315I Abl kinase domain; made in house; host or cells: E. coli BL21(DE3) (Codon+RIL or pSA0145 strain)
T1 sequence (P00520 242-493 T315I limits assumed): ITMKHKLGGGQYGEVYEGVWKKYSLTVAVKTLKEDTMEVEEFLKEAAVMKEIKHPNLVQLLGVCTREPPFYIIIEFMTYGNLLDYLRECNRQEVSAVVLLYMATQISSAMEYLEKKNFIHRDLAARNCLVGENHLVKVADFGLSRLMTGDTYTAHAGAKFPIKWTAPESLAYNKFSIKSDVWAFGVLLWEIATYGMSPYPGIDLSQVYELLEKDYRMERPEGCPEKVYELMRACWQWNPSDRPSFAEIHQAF
Excerpt: Although the first of these examples uses the kinase domain of a mutant form of Abl T315I (“Abl T315I KD”), the kinase assays may use various forms of mutant and wild type enzymes, including, for example, the entire protein, the kinase domain, or a portion thereof (e.g. Abl Y393F). The kinases used in the assays may also be of varying phosphorylation states. In the c-Abl example, a mutant kinase at a zero phosphorylation state was used. c-Abl Pyruvate Kinase/Lactate Dehydrogenase Coupled Enzyme Assay
In the c-Abl Pyruvate Kinase (PK)/Lactate Dehydrogenase (LDH) Coupled Assay the protein kinase dependant phosphorylation of a substrate peptide was coupled to the oxidation of NADH. The oxidation of NADH to NAD+ was detected by monitoring a decrease in absorbance at 340 nm.
Materials: Abl substrate peptide=EAIYAAPFAKKK (SEQ ID NO: 1)—OH (Biopeptide, San Diego, Calif.); pNADH (Sigma Cat#N-8129, FW=709.4); 2M MgC12; 1M HEPES buffer, pH 7.5; Phosphoenolpyruvate (PEP) (Sigma Cat#P-7002, FW=234); Lactate dehydrogenase (LDH) (Worthington Biochemical Cat#2756); Pyruvate Kinase (PK) (Sigma Cat#P-9136); ATP (Sigma Cat#A-3377, FW=551); Greiner 384-well UV star plate; and purified and unphosphorylated T315I Abl kinase domain.
Stock Solutions: 10 mM NADH (7.09 mg/ml in miliQH2O) made fresh daily; 10 mM Abl substrate peptide (13.4 mg/ml in miliQH2O) stored at −20° C.; 100 mM HEPES buffer, pH 7.5 (5 ml 1M stock+45 ml miliQH2O); 100 mM MgCl2 (5 ml 2M MgCl2+95 ml dH2O); 100 MM PEP (23.4 mg/ml in dH2O) stored at −20° C.; 10 mM ATP (5.51 mg/ml in dH2O) stored at −20° C. (diluted 50 μl into total of 10 ml miliQH2O daily=50 μM ATP working stock); 1000 U/ml PK (U/mg varies with lot) flash-frozen under liquid N2 and stored at −80° C.; and 1000 U/ml LDH (U/mg varies with lot) flash-frozen under liquid N2 and stored at −80° C.
Standard Assay Setup for 384-well format (50 μl reaction): 300 μM NADH; 10 mM MgCl2; 2 mM PEP; 45U/ml PK; 60 U/ml LDH; 200 μM Abl substrate peptide; 2.5 μl test compound (in DMSO); 2 μg/ml Abl kinase domain; 10 μM ATP; 100 mM HEPES buffer. Positive controls contained DMSO with no test compound. Negative controls contained 5 μl of 0.5M EDTA (50 mM in the assay). The dephosphorylated form of the c-Abl T315I mutant was used in the biochemical screening assays. The kinase reaction was initiated at time t=0 by the addition of ATP.
Activity was measured by following the time-dependent loss of NADH by absorbance spectroscopy at 340 nm. The linear portion of the resulting progress curve was then analyzed by linear regression to get the activity in absorbance units/time, reported as the slope of that best fit line (moles/unit time can be calculated from using molar extinction coefficient for NADH at 340 nm, 6250M^−1 cm^−1).
Data was evaluated using the equation: Z′=1−[3*(σ++σ−)/|μ+−μ−|](Zhang, et al., 1999 J Biomol Screening 4(2) 67-73), where μ denotes the mean and σ the standard deviation. The subscript designates positive or negative controls. The Z′ score for a robust screening assay should be ≧0.50. The typical threshold=μ+−3*σ+. Any value that falls below the threshold was designated a “hit”.
Dose response was analyzed using the equation: y=min+{(max−min)/(1+10^[compound]−logIC50)}, where y is the observed initial slope, max=the slope in the absence of inhibitor, min=the slope at infinite inhibitor, and the IC50 is the [compound] that corresponds to ½ the total observed amplitude (Amplitude=max−min).
To measure modulation, activation, or inhibition of Abl KD, a test compound was added to the assay at a range of concentrations. Inhibitors may inhibit Abl KD activity at an IC50 in the micromolar range, the nanomolar range, or, for example, in the subnanomolar range.
An open-reading frame for c-Abl was amplified from a Mus musculus (mouse) cDNA library prepared from freshly harvested mouse liver using a commercially available kit (invitrogen) by PCR using the following primers: […]
The c-Abl T315I KD (kinase domain) was purified as follows. […]

Ba/F3 cells, ABL1 T315I = Ba/F3 cells, ABL1 T315I (Homo sapiens, UniProt P00519, T315I, cells depend on it); experiment: 96-well XTT cell survival assay, Ba/F3 ABL1 T315I; type: cell-based; details: 72 hours, read-out: ABL1 T315I XTT [Ba/F3] IC50
Protocol: as §1, §2, §3

Structure (SMILES)	IC50 [1] [nM]	GI50 (Ba/F3 cells, ABL1 WT) [nM]	GI50 (Ba/F3 cells, ABL1 T315I) [nM]
COc1ccccc1-c1c[nH]c2ncc(-c3cccc(C(CC(=O)N4CCC[C@@H]4CO)N4CCS(=O)(=O)CC4)c3)cc12 (stereo partly shown)	50 to 500	> 1000	> 1000
COc1ccccc1-c1n[nH]c2ncc(-c3cccc(C(C(=O)N(C)C)N(C)C)c3)cc12 (stereo not shown)	50 to 500	–	–
COc1ccccc1-c1n[nH]c2ncc(-c3cccc(C(C(=O)N4CCC(O)C4)N(C)C)c3)cc12 (stereo not shown)	50 to 500	–	–
COc1ccccc1-c1n[nH]c2ncc(-c3cccc(C(C(=O)N(C)C(C)C)N(C)C)c3)cc12 (stereo not shown)	50 to 500	–	–
COc1ccccc1-c1c[nH]c2ncc(-c3cncc(C(O)C(=O)N(C)C)n3)cc12 (stereo not shown)	> 500	–	–
COc1ccccc1-c1n[nH]c2ncc(-c3cccc([C@@H]4OCO[C@H]4C(C)C)c3)cc12	< 50	–	–
CC(=O)Nc1ccc(-c2c[nH]c3ncc(-c4cncc(C(O)C(=O)N(C)C)c4)cc23)cc1 (stereo not shown)	< 50	–	> 1000
CN(C)C(=O)C(O)c1cncc(-c2cnc3[nH]cc(-c4cccc(C#N)c4)c3c2)c1 (stereo not shown)	50 to 500	–	–
CN(C)C(=O)C(O)c1cncc(-c2cnc3[nH]cc(-c4ccc(C(F)(F)F)cc4)c3c2)c1 (stereo not shown)	50 to 500	–	–
Cc1noc(C)c1-c1c[nH]c2ncc(-c3cncc(C(O)C(=O)N(C)C)c3)cc12 (stereo not shown)	50 to 500	–	–
CN(C)C(=O)C(O)c1cncc(-c2cnc3[nH]cc(-c4cnn(C)c4)c3c2)c1 (stereo not shown)	50 to 500	–	–
CN(C)C(=O)C(O)c1cncc(-c2cnc3[nH]cc(-c4ccn(-c5ccccc5)n4)c3c2)c1 (stereo not shown)	50 to 500	–	–
CN(C)C(=O)C(O)c1cncc(-c2cnc3[nH]cc(-c4ncco4)c3c2)c1 (stereo not shown)	50 to 500	–	–
CN(C)C(=O)C(O)c1cncc(-c2cnc3[nH]cc(-c4cc(C(F)(F)F)nn4C)c3c2)c1 (stereo not shown)	> 500	–	–
CN(C)C(=O)C(=O)c1cncc(-c2cnc3[nH]cc(-c4ccnn4C)c3c2)c1	> 500	–	–
COc1ccccc1-c1c[nH]c2ncc(-c3cccc(C(CC(=O)N(C)C)N4CCS(=O)(=O)CC4)c3)cc12 (stereo not shown)	> 500	–	–
COc1ccccc1-c1c[nH]c2ncc(-c3cccc(C(CC(=O)N(C)CCN(C)C)N4CCS(=O)(=O)CC4)c3)cc12 (stereo not shown)	> 500	–	–
CN(C)C(=O)C(O)c1cncc(-c2cnc3[nH]cc(-c4cccc(Cl)c4)c3c2)c1 (stereo not shown) [drawing 459]	< 50	< 1000	–

Now from value to compound, other results behind:

IC50 [1] [nM]	Structure (SMILES)	GI50 (Ba/F3 cells, ABL1 WT) [nM]	GI50 (Ba/F3 cells, ABL1 T315I) [nM]
< 50	COc1ccccc1-c1c[nH]c2ncc(-c3cccc(C(C(=O)N(C)C)N4CCNCC4)c3)cc12 (stereo not shown)	> 1000	> 1000
< 50	COc1ccccc1-c1n[nH]c2ncc(-c3cccc(C(OC)C(=O)N4CC(O)C4)c3)cc12 (stereo not shown)	–	–
< 50	COc1ccccc1-c1n[nH]c2ncc(-c3cccc(C(O)CN)c3)cc12 (stereo not shown)	–	–
< 50	CNCCN(C)C(=O)C(N)c1cccc(-c2cnc3[nH]cc(-c4ccccc4OC)c3c2)c1 (stereo not shown)	> 1000	> 1000
< 50	COc1ccccc1-c1n[nH]c2ncc(-c3cccc(C(O)C(=O)N(C)CC#N)c3)cc12 (stereo not shown)	< 1000	> 1000
< 50	COc1ccccc1-c1n[nH]c2ncc(-c3cccc(C(O)C(=O)N(C)CCC#N)c3)cc12 (stereo not shown)	< 1000	< 1000
< 50	COc1ccccc1-c1n[nH]c2ncc(-c3cccc(C(O)C(=O)N(C)C4CCOCC4)c3)cc12 (stereo not shown)	< 1000	< 1000
< 50	COc1ccccc1-c1n[nH]c2ncc(-c3cccc(C(O)C(=O)N(C)Cc4ccco4)c3)cc12 (stereo not shown)	> 1000	> 1000
< 50	COc1ccccc1-c1n[nH]c2ncc(-c3cccc(C(O)C(=O)N(C)CCO)c3)cc12 (stereo not shown)	< 1000	< 1000
< 50	COc1ccccc1-c1c[nH]c2ncc(-c3cncc(C(O)C(=O)N(C)C)c3)cc12 (stereo not shown)	< 1000	< 1000
< 50	COc1ccccc1-c1n[nH]c2ncc(-c3cccc(C(O)C(=O)N(C4CC4)C4CCN(C)CC4)c3)cc12 (stereo not shown)	< 1000	< 1000
< 50	COc1ccccc1-c1n[nH]c2ncc(-c3cccc(C(O)C(=O)N(C)CCNC(C)(C)C)c3)cc12 (stereo not shown)	< 1000	< 1000
< 50	COc1ccccc1-c1n[nH]c2ncc(-c3cccc(C(C)C(=O)N(C)C)c3)cc12 (stereo not shown)	> 1000	> 1000
< 50	COc1ccccc1-c1n[nH]c2ncc(-c3cccc(C(C)C(=O)N(C)CCN(C)C)c3)cc12 (stereo not shown)	> 1000	> 1000
< 50	COc1ccccc1-c1n[nH]c2ncc(-c3cccc(C(C)C(=O)N4CCC(N(C)C)C4)c3)cc12 (stereo not shown)	< 1000	< 1000
< 50	COc1ccccc1-c1n[nH]c2ncc(-c3cccc(C(C)C(=O)N(C)C4CCN(C)C4)c3)cc12 (stereo not shown)	< 1000	> 1000
< 50	COc1ccccc1-c1n[nH]c2ncc(-c3cccc(C(C)C(=O)N4CCC(O)C4)c3)cc12 (stereo not shown)	> 1000	> 1000
< 50	COc1ccccc1-c1n[nH]c2ncc(-c3cccc(C(C)C(=O)N4CCC(N(C)C)CC4)c3)cc12 (stereo not shown)	< 1000	< 1000
< 50	COc1ccccc1-c1n[nH]c2ncc(-c3cccc(C(C)C(=O)N4CCC(O)CC4)c3)cc12 (stereo not shown)	< 1000	> 1000
< 50	COc1ccccc1-c1n[nH]c2ncc(-c3cccc(C(C)C(=O)N4CC(O)C4)c3)cc12 (stereo not shown)	> 1000	> 1000
< 50	CNC(C(=O)N1CCC(O)C1)c1cccc(-c2cnc3[nH]nc(-c4ccccc4OC)c3c2)c1 (stereo not shown)	–	–
